The values that follow come from ChEMBL document CHEMBL1129085.

Active and inactive are the calls of the source. No cut-off for these calls is given here. Where only a bound is given, the exact number is not on record here.

Experiment [1] deals with Estrogen receptor (Rattus norvegicus) (UniProt P06211+Q62986). Nature of the experiment: Binding affinity for rat uterine estrogen receptor relative to estradiol. It counts as protein assay.
Experiment [2] addresses T1, Estrogen receptor (Mus musculus) (UniProt O08537+P19785).
Description: Anti-uterotropic effect as inhibition of 0.06 ug/injection estrone-induced uterine weight gain in mice at 10 ug/injection dose; No
The target in experiment [3] is T1, Estrogen receptor (Mus musculus). The experiment in a line: Uterotrophic effect in mice at 10 ug/injection dose; No. To be noted: Uterus. It is filed as functional, tissue-based.
For experiment [4] the target is unchanged. The experiment in a line: Anti-uterotropic effect as inhibition of 0.06 ug/injection estrone-induced uterine weight gain in mice at 10 ug/injection dose; Yes. It counts as functional.

T1 sequence (O08537 whole entry, looked up): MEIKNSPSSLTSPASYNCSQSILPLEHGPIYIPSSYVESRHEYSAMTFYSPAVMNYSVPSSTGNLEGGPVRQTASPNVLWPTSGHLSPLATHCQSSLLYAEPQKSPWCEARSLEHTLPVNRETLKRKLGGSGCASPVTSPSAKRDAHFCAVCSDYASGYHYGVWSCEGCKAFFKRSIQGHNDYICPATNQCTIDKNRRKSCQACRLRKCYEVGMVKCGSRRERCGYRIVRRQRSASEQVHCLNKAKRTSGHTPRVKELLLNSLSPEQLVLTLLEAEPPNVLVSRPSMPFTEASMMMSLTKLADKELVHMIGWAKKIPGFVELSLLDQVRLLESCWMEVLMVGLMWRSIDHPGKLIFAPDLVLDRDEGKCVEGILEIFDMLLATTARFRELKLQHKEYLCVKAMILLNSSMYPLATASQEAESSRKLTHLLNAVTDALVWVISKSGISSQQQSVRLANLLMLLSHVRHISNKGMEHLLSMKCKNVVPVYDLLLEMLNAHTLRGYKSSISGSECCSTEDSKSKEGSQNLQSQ
T1 sequence (P19785 whole entry, looked up): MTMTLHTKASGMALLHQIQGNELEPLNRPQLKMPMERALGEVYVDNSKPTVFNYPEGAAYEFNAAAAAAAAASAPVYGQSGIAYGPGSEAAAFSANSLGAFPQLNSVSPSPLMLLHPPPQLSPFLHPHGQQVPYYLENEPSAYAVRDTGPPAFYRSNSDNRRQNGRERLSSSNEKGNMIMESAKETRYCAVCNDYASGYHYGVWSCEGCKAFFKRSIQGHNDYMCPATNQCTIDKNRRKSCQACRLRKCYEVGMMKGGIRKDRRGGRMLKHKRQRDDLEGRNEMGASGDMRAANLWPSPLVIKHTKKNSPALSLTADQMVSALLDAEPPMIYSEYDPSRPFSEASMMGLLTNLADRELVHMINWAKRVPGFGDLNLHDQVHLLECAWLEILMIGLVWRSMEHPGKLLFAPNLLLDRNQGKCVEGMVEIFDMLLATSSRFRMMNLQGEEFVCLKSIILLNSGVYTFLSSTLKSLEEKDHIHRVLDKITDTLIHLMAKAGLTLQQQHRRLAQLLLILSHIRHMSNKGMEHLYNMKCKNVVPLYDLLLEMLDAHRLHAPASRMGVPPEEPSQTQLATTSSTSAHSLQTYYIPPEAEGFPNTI

`CCCCN(C)C(=O)CCCCCCCCCC[C@@H]1C[C@H](O)[C@@]2(C)CC[C@@H]3c4ccc(O)cc4CC[C@H]3[C@H]12` displayed an RBA in experiment [1] of less than 0.001%.

For `CCCCN(C)C(=O)CCCCCCCCCCC1C[C@H](O)[C@@]2(C)CC[C@@H]3c4ccc(O)cc4CC[C@H]3[C@H]12` (some centres not stated), in experiment [2], the Antiuterotrophic activity entry was “inactive”. Besides, the RBA in experiment [1] is 0.001%. Moreover, the Uterotrophic activity result in experiment [3] is “inactive”.

Regarding `CCCCN(C)C(=O)CCCCCCCCCC[C@]1(O)CC[C@H]2[C@@H]3CCc4cc(O)ccc4[C@H]3CC[C@@]21C`, the Antiuterotrophic activity result in experiment [2] is “inactive”. This compound returned an RBA in experiment [1] of 0.01%. For the same compound, in experiment [3], the Uterotrophic activity entry is “inactive”.

Regarding `CCCCN(C)C(=O)CCCCCCCCCC[C@H]1C[C@H](O)[C@@]2(C)CC[C@@H]3c4ccc(O)cc4CC[C@H]3[C@H]12`, the Antiuterotrophic activity result in experiment [2] is “inactive”. In addition, the RBA in experiment [1] stood at 0.05%. In addition, the Uterotrophic activity result in experiment [3] is “inactive”.

In the case of `CCCCN(C)C(=O)CCCCCCCCCCCC[C@H]1C[C@H](O)[C@@]2(C)CC[C@@H]3c4ccc(O)cc4CC[C@H]3[C@H]12`, the Antiuterotrophic activity result in experiment [2] is “inactive”. Moreover, in experiment [1], the RBA was less than 0.001%. For the same compound, the Uterotrophic activity result in experiment [3] was “inactive”.

Take `CCCCN(C)C(=O)CCCCCCCCC1C[C@H](O)[C@@]2(C)CC[C@@H]3c4ccc(O)cc4CC[C@H]3[C@H]12` (some centres not stated): in experiment [2], the Antiuterotrophic activity entry was “inactive”. The compound further displayed an RBA in experiment [1] of less than 0.001%. The Uterotrophic activity result in experiment [3] was “inactive”.

With `CCCCN(C)C(=O)CCCCCCCCCC[C@@H]1Cc2cc(O)ccc2[C@H]2CC[C@]3(C)[C@@H](O)CC[C@H]3[C@H]12`, in experiment [4], the Antiuterotrophic activity result is “inactive”. Also, in experiment [1], the RBA amounted to 1.2%. The Uterotrophic activity entry in experiment [3] is “inactive”.

Consider `CCCCN(C)C(=O)CCCCCCCCCCCC[C@@H]1C[C@H](O)[C@@]2(C)CC[C@@H]3c4ccc(O)cc4CC[C@H]3[C@H]12`, for which the Antiuterotrophic activity entry in experiment [2] was “inactive”. This compound had an RBA in experiment [1] of less than 0.001%. Moreover, the Uterotrophic activity result in experiment [3] was “inactive”.
